Measurements: patent US6713051B2, “Antiperspirant or deodorant compositions” (Unilever Home & Personal Care USA division of Conopco, Inc., priority 2001, dated 2004)

Molecular target: T1, human PPARα (Homo sapiens, UniProt Q07869)
T1 construct: The coding region of a human PPARα cDNA was inserted downstream of the CMV promoter; expressed in transfected cells; host or cells: Cos-7 cells, transient transfection (pcDNA3.1(−)-PPARα, pRSV-RXRα, 3xPPRE-TK-luc reporter, pRL-TK)
T1 sequence (Q07869 1-468): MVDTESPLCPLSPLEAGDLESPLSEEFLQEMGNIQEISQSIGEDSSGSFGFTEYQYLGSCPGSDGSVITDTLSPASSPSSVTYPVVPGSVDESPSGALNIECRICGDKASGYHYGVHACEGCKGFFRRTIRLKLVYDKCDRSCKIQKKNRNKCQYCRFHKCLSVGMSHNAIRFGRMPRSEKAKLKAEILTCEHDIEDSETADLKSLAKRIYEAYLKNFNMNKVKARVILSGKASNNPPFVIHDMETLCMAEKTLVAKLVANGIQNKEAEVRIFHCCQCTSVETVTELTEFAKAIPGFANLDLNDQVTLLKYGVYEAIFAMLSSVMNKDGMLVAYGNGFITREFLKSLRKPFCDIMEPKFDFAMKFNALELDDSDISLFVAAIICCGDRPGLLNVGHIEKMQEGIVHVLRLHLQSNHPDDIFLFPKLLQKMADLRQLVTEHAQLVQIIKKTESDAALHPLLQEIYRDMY
T1 sequence (P19793 1-462 partner): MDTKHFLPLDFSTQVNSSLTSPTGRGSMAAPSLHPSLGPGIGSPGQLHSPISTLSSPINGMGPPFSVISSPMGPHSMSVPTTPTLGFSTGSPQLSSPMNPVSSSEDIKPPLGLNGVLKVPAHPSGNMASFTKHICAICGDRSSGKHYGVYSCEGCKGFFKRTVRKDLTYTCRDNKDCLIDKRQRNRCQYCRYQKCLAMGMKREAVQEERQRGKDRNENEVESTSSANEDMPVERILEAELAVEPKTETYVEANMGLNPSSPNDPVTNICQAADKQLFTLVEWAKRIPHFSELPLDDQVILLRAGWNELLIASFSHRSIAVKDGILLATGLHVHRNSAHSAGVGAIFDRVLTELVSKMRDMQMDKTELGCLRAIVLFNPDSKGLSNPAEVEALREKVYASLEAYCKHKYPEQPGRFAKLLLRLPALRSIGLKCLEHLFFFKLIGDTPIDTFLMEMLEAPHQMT
Experiment: PPARα reporter gene assay (firefly luciferase, transiently transfected Cos-7 cells)
Type: cell-based

CC\C=C/C=C/C=C/C=C\CCCCCCCC(=O)O [cis parinaric acid, cis-parinaric acid]
Result at (lowest administration level at which super or MS activity was achieved): 25 μm
Result (superior activity class achieved) (class reached): super (superior activity [super] (50% higher—at least 2.25 times PPARα activation))
Pass at (lowest tested administration level at which the test material passed) (pass = activation greater than oleic acid at 100 μM, commonly >1.57 times vehicle control, 24 h treatment): 10 μm
